# Reference: US12144795B2, “Cannabidiol compositions having modified cannabinoid profiles” (priority 2018, dated 2024)
# Experiment: Stability studies of CBD prepared via Protocol 3 (crude, pure, 2x recrystallized; 5° C., 25° C./60% RH, 40° C./75% RH)
# Type: physicochemical
smiles,measurement,setting,value
C=C(C)[C@@H]1CCC(C)=C[C@H]1c1c(O)cc(CCCCC)cc1O [Pure CBD],Related substances by HPLC (low level): Δ9-Tetrahydrocannabinol,"25° C./60% RH, 0 month",26 ppm
same,Water content in % w/w,"25° C./60% RH, 0 month",<0.05%
same,Appearance,"25° C./60% RH, 1 month",Off-White Powder
same,Assay by HPLC,"25° C./60% RH, 1 month",99.7%
same,Each unspecified impurity: RRT~1.927,"25° C./60% RH, 1 month",RRT~1.927: 0.06%
same,Related substances by HPLC (low level): Δ8-Tetrahydrocannabinol,"25° C./60% RH, 1 month",25 ppm
same,Related substances by HPLC (low level): Δ9-Tetrahydrocannabinol,"25° C./60% RH, 1 month",21 ppm
same,Related substances by HPLC: 4-Monobromo-CBD,"25° C./60% RH, 1 month",<0.03% (ND)
same,Related substances by HPLC: Olivetol,"25° C./60% RH, 1 month",<0.03% (ND)
same,"Related substances by HPLC: Sum of impurities, ≥0.05%","25° C./60% RH, 1 month",0.06%
same,Related substances by HPLC: Δ8-Tetrahydrocannabinol,"25° C./60% RH, 1 month",<0.02% (ND)
same,Related substances by HPLC: Δ9-Tetrahydrocannabinol,"25° C./60% RH, 1 month",<0.02% (ND)
same,Appearance,"25° C./60% RH, 2 months",Off-White Powder
same,Assay by HPLC,"25° C./60% RH, 2 months",100.3%
same,Each unspecified impurity: RRT~1.935,"25° C./60% RH, 2 months",RRT~1.935: 0.08%
same,Related substances by HPLC (low level): Δ8-Tetrahydrocannabinol,"25° C./60% RH, 2 months",21 ppm
same,Related substances by HPLC (low level): Δ9-Tetrahydrocannabinol,"25° C./60% RH, 2 months",14 ppm
same,Related substances by HPLC: 4-Monobromo-CBD,"25° C./60% RH, 2 months",<0.03% (ND)
same,Related substances by HPLC: Olivetol,"25° C./60% RH, 2 months",<0.03% (ND)
same,"Related substances by HPLC: Sum of impurities, ≥0.05%","25° C./60% RH, 2 months",0.08%
same,Related substances by HPLC: Δ8-Tetrahydrocannabinol,"25° C./60% RH, 2 months",<0.02% (ND)
same,Related substances by HPLC: Δ9-Tetrahydrocannabinol,"25° C./60% RH, 2 months",<0.02% (ND)
same,Appearance,"25° C./60% RH, 3 months",Off-white
same,Assay by HPLC,"25° C./60% RH, 3 months",98.5%
same,Each unspecified impurity: RRT~1.982,"25° C./60% RH, 3 months",RRT~1.982: 0.03%
same,Related substances by HPLC (low level): Δ8-Tetrahydrocannabinol,"25° C./60% RH, 3 months",36 ppm
same,Related substances by HPLC (low level): Δ9-Tetrahydrocannabinol,"25° C./60% RH, 3 months",<4 ppm (2 ppm)
same,Related substances by HPLC: 4-Monobromo-CBD,"25° C./60% RH, 3 months",<0.03% (ND)
same,Related substances by HPLC: Olivetol,"25° C./60% RH, 3 months",<0.03% (ND)
same,"Related substances by HPLC: Sum of impurities, ≥0.05%","25° C./60% RH, 3 months",<0.05%
same,Related substances by HPLC: Δ8-Tetrahydrocannabinol,"25° C./60% RH, 3 months",<0.02% (ND)
same,Related substances by HPLC: Δ9-Tetrahydrocannabinol,"25° C./60% RH, 3 months",<0.02% (ND)
same,Related substances by HPLC (low level): Δ9-Tetrahydrocannabinol,"40° C./75% RH, 0 month",26 ppm
same,Water content in % w/w,"40° C./75% RH, 0 month",<0.05%
same,Appearance,"40° C./75% RH, 1 month",Off-White
same,Assay by HPLC,"40° C./75% RH, 1 month",99.5%
same,Each unspecified impurity: RRT~1.929,"40° C./75% RH, 1 month",0.05%
same,Related substances by HPLC (low level): Δ8-Tetrahydrocannabinol,"40° C./75% RH, 1 month",22 ppm
same,Related substances by HPLC (low level): Δ9-Tetrahydrocannabinol,"40° C./75% RH, 1 month",14 ppm
same,Related substances by HPLC: 4-Monobromo-CBD,"40° C./75% RH, 1 month",<0.03% (ND)
same,Related substances by HPLC: Olivetol,"40° C./75% RH, 1 month",<0.03% (ND)
same,"Related substances by HPLC: Sum of impurities, ≥0.05%","40° C./75% RH, 1 month",0.05%
same,Related substances by HPLC: Δ8-Tetrahydrocannabinol,"40° C./75% RH, 1 month",<0.02% (ND)
same,Related substances by HPLC: Δ9-Tetrahydrocannabinol,"40° C./75% RH, 1 month",<0.02% (ND)
same,Appearance,"40° C./75% RH, 2 months",Off-White
same,Assay by HPLC,"40° C./75% RH, 2 months",100.2%
same,Each unspecified impurity: RRT~1.932,"40° C./75% RH, 2 months",0.07%
same,Related substances by HPLC (low level): Δ8-Tetrahydrocannabinol,"40° C./75% RH, 2 months",20 ppm
same,Related substances by HPLC (low level): Δ9-Tetrahydrocannabinol,"40° C./75% RH, 2 months",9 ppm
same,Related substances by HPLC: 4-Monobromo-CBD,"40° C./75% RH, 2 months",<0.03% (ND)
same,Related substances by HPLC: Olivetol,"40° C./75% RH, 2 months",<0.03% (ND)
same,"Related substances by HPLC: Sum of impurities, ≥0.05%","40° C./75% RH, 2 months",0.07%
same,Related substances by HPLC: Δ8-Tetrahydrocannabinol,"40° C./75% RH, 2 months",<0.02% (ND)
same,Related substances by HPLC: Δ9-Tetrahydrocannabinol,"40° C./75% RH, 2 months",<0.02% (ND)
same,Appearance,"40° C./75% RH, 3 months",Off-white
same,Assay by HPLC,"40° C./75% RH, 3 months",98.8%
same,Each unspecified impurity: RRT~1.983,"40° C./75% RH, 3 months",0.03%
same,Related substances by HPLC (low level): Δ8-Tetrahydrocannabinol,"40° C./75% RH, 3 months",30 ppm
same,Related substances by HPLC (low level): Δ9-Tetrahydrocannabinol,"40° C./75% RH, 3 months",<4 ppm (ND)
same,Related substances by HPLC: 4-Monobromo-CBD,"40° C./75% RH, 3 months",<0.03% (ND)
same,Related substances by HPLC: Olivetol,"40° C./75% RH, 3 months",<0.03% (ND)
same,"Related substances by HPLC: Sum of impurities, ≥0.05%","40° C./75% RH, 3 months",<0.05%
same,Related substances by HPLC: Δ8-Tetrahydrocannabinol,"40° C./75% RH, 3 months",<0.02% (ND)
same,Related substances by HPLC: Δ9-Tetrahydrocannabinol,"40° C./75% RH, 3 months",<0.02% (ND)
same,Appearance,"40° C./75% RH, 5 months",Off-white
same,Assay by HPLC,"40° C./75% RH, 5 months",99.9%
same,Each unspecified impurity: RRT~1.918,"40° C./75% RH, 5 months",0.04%
same,Related substances by HPLC (low level): Δ8-Tetrahydrocannabinol,"40° C./75% RH, 5 months",36 ppm
same,Related substances by HPLC (low level): Δ9-Tetrahydrocannabinol,"40° C./75% RH, 5 months",6 ppm
same,Related substances by HPLC: 4-Monobromo-CBD,"40° C./75% RH, 5 months",<0.03% (ND)
same,Related substances by HPLC: Olivetol,"40° C./75% RH, 5 months",<0.03% (ND)
same,"Related substances by HPLC: Sum of impurities, ≥0.05%","40° C./75% RH, 5 months",<0.05%
same,Related substances by HPLC: Δ8-Tetrahydrocannabinol,"40° C./75% RH, 5 months",<0.02% (ND)
same,Related substances by HPLC: Δ9-Tetrahydrocannabinol,"40° C./75% RH, 5 months",<0.02% (ND)
